Structures are written as SMILES.

Type in all cases: biochemical
The target of assay [1] is LRRK2 (Homo sapiens, UniProt Q5S007). The assay can be described thus: LRRK2 enzyme inhibition, ADP-Glo kinase assay. To be noted: ATP 10 μM. Also on record: purchased Invitrogen PR8604B. The method, then:
To evaluate an inhibitory activity of the compound according to the present invention against LRRK2, LRRK2 (G2019S), DYRK1, CLK1, and TTK kinases, experiments were performed as follows.
Each of the Example compounds was reacted with a purified human LRRK2 (Invitrogen #PR8604B) enzyme to evaluate an ability to inhibit an enzyme using a method as described below. A composition of 40 mM Tris-HCl (pH 7.4), 20 mM MgCl2, 0.5 mg/mL BSA, and 50 μM DTT was used as a reaction buffer, and all reactions of test substances were performed in the reaction buffer. Each of the compounds was diluted […] from a 10 mM DMSO stock using a serial dilution method, and enzyme activities were measured at final compound concentrations of 50, 10, 2, 0.4, 0.08, 0.016, 0.0032, 0.00064, 0.000128, 0.0000256, 0.00000512, and 0.000001024 μM. In the test, purified ATP (10 μM) and an enzyme substrate (0.2 μg) were reacted with a human LRRK2 (25 ng) enzyme at 25° C. for 2 hours, and the enzyme activities were determined using an in vitro ADP-Glo™ kinase assay (Promega). An enzyme-activity reaction solution, an ADP-Glo reaction solution, and an enzyme-ability detection solution were reacted at a ratio of 2:2:1 to measure a degree of inhibition of the enzyme activity with luminescence. The degree of inhibition of the enzyme activity according to the treatment concentration of each of the compounds was calculated based on the fluorescence of the enzyme activity of the solvent control which was not treated with the compound. In this case, the concentration of each of the compounds inhibiting 50% of the enzyme activity was determined to be an IC50 (nM) value, and calculated using Prism (Version 5.01; GraphPad) software.

Assay [2] has as its target T1, human GST-CLK1 (Homo sapiens, UniProt P49759).
T1 construct: purified human GST-CLK1 (129-end, SignalChem) enzyme; purchased SignalChem
Put plainly: GST-CLK1 enzyme inhibition, ADP-Glo kinase assay. The following applies: ATP 10 μM, GST-CLK1 129-end. An outline of the steps: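 Human GST-CLK1 (129-end, 3 ng) reacted with substrate and 10 μM ATP for 1 h at 25° C in 40 mM Tris-HCl pH 7.4, 20 mM MgCl2, 0.5 mg/mL BSA, 50 μM DTT. ADP-Glo luminescence was normalised to solvent control; IC50 (nM) from 3 data sets.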
(ADP-Glo turns the ADP formed in a reaction into a luminescent signal.)

For assay [3], the target named is T2, human GST-DYRK1A (Homo sapiens, UniProt Q13627).
T2 construct: purified human GST-DYRK1A (full length, Thermo Scientifics) enzyme; purchased Thermo Scientifics
The assay can be described thus: GST-DYRK1A enzyme inhibition, ADP-Glo kinase assay. To be noted: ATP 10 μM, GST-DYRK1A full length, read-out: DYRK1 IC50. The procedure, abridged: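 Full-length human GST-DYRK1A (10 ng) with 10 μM ATP and specific substrate in 40 mM Tris-HCl pH 7.4, 20 mM MgCl2, 0.5 mg/mL BSA, 50 μM DTT, 1 h at 25 °C. ADP formation read by ADP-Glo luminescence relative to solvent control; IC50 from three data sets.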

Assay [4] concerns the target LRRK2 (G2019S) (Homo sapiens, UniProt Q5S007, G2019S). Put plainly: LRRK2 G2019S enzyme inhibition, ADP-Glo kinase assay. The following applies: ATP 25 μM. Also on record: purchased SignalChem L10-12GG. An outline of the steps: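 Purified human LRRK2 G2019S (16 ng) with 25 μM ATP and 0.2 μg substrate, 2 h at 25° C. in Tris-HCl pH 7.4, MgCl2, BSA, DTT buffer; compounds at 12 final concentrations, 50 μM down to 0.000001024 μM. ADP-Glo luminescence versus solvent control gave IC50.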

Sequence of LRRK2 (G2019S) (Q5S007 970-2527 G2019S limits assumed): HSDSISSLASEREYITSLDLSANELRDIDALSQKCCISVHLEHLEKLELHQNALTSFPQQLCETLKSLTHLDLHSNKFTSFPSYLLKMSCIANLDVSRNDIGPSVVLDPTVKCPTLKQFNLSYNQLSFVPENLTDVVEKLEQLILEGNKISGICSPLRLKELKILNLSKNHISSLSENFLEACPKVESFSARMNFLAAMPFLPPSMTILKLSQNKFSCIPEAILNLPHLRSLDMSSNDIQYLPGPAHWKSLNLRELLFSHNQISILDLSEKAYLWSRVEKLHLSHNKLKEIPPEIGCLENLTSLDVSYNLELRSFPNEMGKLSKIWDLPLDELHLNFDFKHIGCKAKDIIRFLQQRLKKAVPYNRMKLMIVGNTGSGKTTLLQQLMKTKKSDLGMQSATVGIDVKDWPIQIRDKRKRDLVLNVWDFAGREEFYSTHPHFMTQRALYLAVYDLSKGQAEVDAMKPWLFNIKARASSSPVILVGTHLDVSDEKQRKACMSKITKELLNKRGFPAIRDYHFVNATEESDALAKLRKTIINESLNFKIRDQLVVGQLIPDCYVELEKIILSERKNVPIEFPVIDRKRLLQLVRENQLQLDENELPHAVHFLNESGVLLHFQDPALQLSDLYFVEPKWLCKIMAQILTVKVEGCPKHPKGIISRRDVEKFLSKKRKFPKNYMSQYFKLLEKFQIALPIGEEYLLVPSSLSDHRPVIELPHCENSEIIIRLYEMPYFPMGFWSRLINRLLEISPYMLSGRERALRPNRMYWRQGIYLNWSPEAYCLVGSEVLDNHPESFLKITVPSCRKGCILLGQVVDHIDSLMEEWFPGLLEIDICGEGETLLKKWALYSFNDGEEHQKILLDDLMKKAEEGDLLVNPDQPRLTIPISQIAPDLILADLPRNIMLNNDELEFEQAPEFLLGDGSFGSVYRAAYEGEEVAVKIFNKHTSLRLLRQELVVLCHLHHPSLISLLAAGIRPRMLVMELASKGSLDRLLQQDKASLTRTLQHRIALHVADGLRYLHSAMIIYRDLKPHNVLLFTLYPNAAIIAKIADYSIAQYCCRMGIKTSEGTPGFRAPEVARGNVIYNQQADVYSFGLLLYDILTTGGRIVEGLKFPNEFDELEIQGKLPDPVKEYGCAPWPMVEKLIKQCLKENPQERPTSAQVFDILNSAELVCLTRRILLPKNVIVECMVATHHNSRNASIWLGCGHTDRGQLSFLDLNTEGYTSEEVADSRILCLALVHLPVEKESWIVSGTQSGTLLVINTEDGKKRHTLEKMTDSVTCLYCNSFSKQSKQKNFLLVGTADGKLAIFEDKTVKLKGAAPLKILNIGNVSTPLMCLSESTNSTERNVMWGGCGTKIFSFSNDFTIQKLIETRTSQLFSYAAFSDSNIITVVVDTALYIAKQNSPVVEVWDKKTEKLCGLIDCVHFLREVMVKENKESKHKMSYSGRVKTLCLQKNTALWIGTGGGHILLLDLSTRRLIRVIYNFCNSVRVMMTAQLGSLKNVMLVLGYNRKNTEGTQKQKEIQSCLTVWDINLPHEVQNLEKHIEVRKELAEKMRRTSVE
T1 sequence (P49759 129-484 limits assumed): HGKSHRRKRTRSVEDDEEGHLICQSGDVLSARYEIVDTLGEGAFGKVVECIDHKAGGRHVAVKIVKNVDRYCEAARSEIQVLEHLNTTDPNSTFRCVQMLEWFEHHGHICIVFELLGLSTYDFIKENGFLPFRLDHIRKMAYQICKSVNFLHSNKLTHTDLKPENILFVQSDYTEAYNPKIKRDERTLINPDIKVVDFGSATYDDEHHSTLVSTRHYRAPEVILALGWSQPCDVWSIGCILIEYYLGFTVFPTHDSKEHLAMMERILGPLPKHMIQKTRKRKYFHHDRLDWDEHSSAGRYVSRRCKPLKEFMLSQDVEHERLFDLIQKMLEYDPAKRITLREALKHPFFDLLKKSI
Sequence of LRRK2 (Q5S007 970-2527 limits assumed): as the sequence (Q5S007 970-2527 G2019S limits assumed) above, with S1050G counted along it

Take `CC(C)Nc1nc(Nc2ccc(C(=O)N3CCC(N4CCOCC4)CC3)c3c2OCCO3)nc2[nH]cc(C#N)c12` [Example 140, 4-(isopropylamino)-2-((8-(4-morpholinopiperidine-1-carbonyl)-2,3-dihydrobenzo[b][1,4]dioxin-5-yl)amino)-7H-pyrrolo[2,3-d]pyrimidine-5-carbonitrile]: the IC50 in assay [1] is below 100 nM; in assay [2], below 100 nM; in assay [3] it was 301 to 1000 nM.

Consider `COc1cc(S(C)(=O)=O)ccc1Nc1nc(NC2CCOCC2)c2c(C#N)c[nH]c2n1` [Example 109, 2-((2-methoxy-4-(methylsulfonyl)phenyl)amino)-4-((tetrahydro-2H-pyran-4-yl)amino)-7H-pyrrolo[2,3-d]pyrimidine-5-carbonitrile], for which the IC50 is below 100 nM in assay [1], 301 to 1000 nM in assay [2] and 301 to 1000 nM in assay [3].

For the compound `CNc1nc(Nc2ccc(C(=O)N3CCOCC3)c3c2OCO3)nc2[nH]cc(C(F)(F)F)c12` [Example 214, (7-((4-(methylamino)-5-(trifluoromethyl)-7H-pyrrolo[2,3-d]pyrimidin-2-yl)amino)benzo[d][1,3]dioxol-4-yl)(morpholino)methanone], the IC50 in assay [1], in assay [2] and in assay [3] was below 100 nM throughout.

In the case of `COc1cc(S(C)(=O)=O)ccc1Nc1nc(NC2CCCC2)c2c(C(F)(F)F)c[nH]c2n1` [Example 188, N^4-cyclopentyl-N^2-(2-methoxy-4-(methylsulfonyl)phenyl)-5-(trifluoromethyl)-7H-pyrrolo[2,3-d]pyrimidine-2,4-diamine], the IC50 in assay [1], in assay [2] and in assay [3] was 301 to 1000 nM throughout.

Take `CC[C@H](C)Nc1nc(Nc2ccc(C(=O)N3CCC(N4CCOCC4)CC3)c3c2OCC3)nc2[nH]cc(C(F)(F)F)c12` [Example 452, (S)-(7-((4-(sec-butylamino)-5-(trifluoromethyl)-7H-pyrrolo[2,3-d]pyrimidin-2-yl)amino)-2,3-dihydrobenzo-furan-4-yl)(4-morpho-linopiperidin-1-yl)methanone]: the IC50 in assay [1] was below 100 nM; in assay [2], below 100 nM; in assay [3] it was 101 to 300 nM.

Regarding `COc1cc(S(C)(=O)=O)ccc1Nc1nc(C2CC2)c2c(C#N)c[nH]c2n1` [Example 222, 4-cyclopropyl-2-((2-methoxy-4-(methylsulfonyl)phenyl)amino)-7H-pyrrolo[2,3-d]pyrimidine-5-carbonitrile], the IC50 was below 100 nM in assay [1], 301 to 1000 nM in assay [2] and 301 to 1000 nM in assay [3].

With `COCC(C)(C)Nc1nc(Nc2ccc(S(C)(=O)=O)cc2OC)nc2[nH]cc(C#N)c12` [Example 111, 4-((1-methoxy-2-methylpropan-2-yl)amino)-2-((2-methoxy-4-(methylsulfonyl)phenyl)amino)-7H-pyrrolo[2,3-d]pyrimdiine-5-carobnitrile], the values for the IC50 in assay [1], in assay [2] and in assay [3] were below 100 nM, 301 to 1000 nM and 301 to 1000 nM, respectively.

Turning to `O=C(c1ccc(Nc2nc(NCC3CC3)c3c(C(F)(F)F)c[nH]c3n2)c2c1CCO2)N1CCOCC1` [Example 457, (7-((4-((cyclo-propylmeth-yl)amino)-5-(trifluoromethyl)-7H-pyrrolo[2,3-d]pyrimidin-2-yl)amino)-2,3-dihydrobenzo-furan-4-yl) (morpholino) methanone], the IC50 in assay [2] was below 100 nM; in assay [3], 301 to 1000 nM; in assay [4], below 100 nM.

Consider `O=C(c1ccc(Nc2nc(NC3CCCCC3)c3c(C(F)(F)F)c[nH]c3n2)c2c1CCO2)N1CCOCC1` [Example 454, (7-((4-(cyclo-hexylamino)-5-(trifluoromethyl)-7H-pyrrolo[2,3-d]pyrimidin-2-yl)amino)-2,3-dihydrobenzo-furan-4-yl) (morpholino) methanone], for which the IC50 was 301 to 1000 nM in assay [2], 301 to 1000 nM in assay [3] and below 100 nM in assay [4].

With `O=C(c1ccc(Nc2nc(NC3CC3)c3c(C(F)(F)F)c[nH]c3n2)c2c1CCO2)N1CCOCC1` [Example 433, (7-((4-(cyclo-propylamino)-5-(trifluoromethyl)-7H-pyrrolo[2,3-d]pyrimidin-2-yl)amino)-2,3-dihydrobenzo-furan-4-yl) (morpholino) methanone], the IC50 in assay [2] was below 100 nM; in assay [3], 301 to 1000 nM; in assay [4], below 100 nM.

In the case of `N#Cc1c[nH]c2nc(Nc3ccc(C(=O)N4CCOCC4)c4c3OCCO4)nc(NC3CCCCC3)c12` [Example 248], the half-maximal inhibitory concentration (IC50) was 301 to 1000 nM in assay [2], 301 to 1000 nM in assay [3] and below 100 nM in assay [4].

Take `CC[C@@H](C)Nc1nc(Nc2ccc(C(=O)N3CCOCC3)c3c2OCC3)nc2[nH]cc(C#N)c12` [Example 354, (R)-4-(sec-butylamino)-2-((4-(morpholine-4-carbonyl)-2,3-dihydrobenzo-furan-yl)amino)-7H-pyrrolo[2,3-d]pyrimidine-5-carbonitrile]: the IC50 is below 100 nM in assay [2], 301 to 1000 nM in assay [3] and below 100 nM in assay [4].

On to `COc1cc(S(=O)(=O)N2CCOCC2)ccc1Nc1nc(NCC2CCC2)c2cc[nH]c2n1` [Example 37, N^4-(cyclobutylmethyl)-N^2-(2-methoxy-4-(morpholinosulfonyl)phenyl)-7H-pyrrolo[2,3-d]pyrimidine-2,4-diamine], for which the IC50 in assay [2] was 301 to 1000 nM; in assay [3] it was 301 to 1000 nM; in assay [4], below 100 nM.

As for `CCCNc1nc(Nc2ccc(S(=O)(=O)N3CCC(N4CCOCC4)CC3)cc2OC)nc2[nH]ccc12` [Example 8, N^2-(2-methoxy-4-((4-morpholinopiperidin-1-yl)sulfonyl)phenyl)-N^4-propyl-7H-pyrrolo[2,3-d]pyrimidine-2,4-diamine 2,2,2-trifluoroacetate], the IC50 in assay [2] is 301 to 1000 nM; in assay [3], 301 to 1000 nM; in assay [4] it was below 100 nM.

`O=C(c1ccc(Nc2nc(NCC3CCCC3)c3c(C(F)(F)F)c[nH]c3n2)c2c1OCCO2)N1CCN(C2COC2)CC1` [Example 425, (8-((4-((cyclo-pentylmeth-yl)amino)-5-(trifluoromethyl)-7H-pyrrolo[2,3-d]pyrimidin-2-yl)amino)-2,3-dihydrobenzo[b] [1,4]dioxin-5-yl) (4-(oxetan-3-yl)piperazin-1-yl)methanone]: the IC50 in assay [2] was 301 to 1000 nM; in assay [3] it was 301 to 1000 nM; in assay [4], below 100 nM.

In the case of `COc1cc(S(C)(=O)=O)ccc1Nc1nc(N[C@@H]2CCOC2)c2c(C(F)(F)F)c[nH]c2n1` [Example 210, (R)-N^2-(2-methoxy-4-(methylsulfonyl)phenyl)-N^4-(tetrahydrofuran-3-yl)-5-(trifluoromethyl)-7H-pyrrolo[2,3-d]pyrimidine-2,4-diamine], the IC50 in assay [2] is 301 to 1000 nM; in assay [3] it was 301 to 1000 nM; in assay [4] it was below 100 nM.

Turning to `COc1cc(S(C)(=O)=O)ccc1Nc1nc(NCC2CCCC2)c2cc[nH]c2n1` [Example 42, N^4-(cyclopentylmethyl)-N^2-(2-methoxy-4-(methylsulfonyl)phenyl)-7H-pyrrolo[2,3-d]pyrimidine-2,4-diamine 2,2,2-trifluoroaceate], the results for the IC50 in assay [2], in assay [3] and in assay [4] were 301 to 1000 nM, 301 to 1000 nM and 101 to 300 nM, respectively.

As for `COCCNc1nc(Nc2ccc(S(C)(=O)=O)cc2OC)nc2[nH]ccc12` [Example 21, N^2-(2-methoxy-4-(methylsulfonyl)phenyl)-N^4-(2-methoxyethyl)-7H-pyrrolo[2,3-d]pyrimidine-2,4-diamine 2,2,2-trifluoroacetate], the IC50 in assay [2] was 301 to 1000 nM; in assay [3] it was 301 to 1000 nM; in assay [4], below 100 nM.

A word on the IC50: it is the concentration that gives 50% inhibition.

These data come from patent US20230066011A1, “PYRROLOPYRIMIDINE DERIVATIVE, AND PHARMACEUTICAL COMPOSITION FOR PREVENTING OR TREATING PROTEIN KINASE-RELATED DISEASE COMPRISING SAME AS ACTIVE INGREDIENT” (VORONOI CO., LTD., priority 2019, published 2023).
